Source: patent US8372855B2, “Cyclohexyloxy-substituted heterocyclics, medicines containing these compounds and method for the production thereof” (Boehringer Ingelheim International GmbH, priority 2008, dated 2013)

Biological target: T1, human EGF-R (Homo sapiens, UniProt P00533)
T1 construct: expressed in transfected cells
Test: Inhibition of EGFR-dependent proliferation (EGF-stimulated murine haematopoietic cell line expressing human EGF-R, Cell Titer 96 AQueous assay)
Type: cell-based
Settings: 20 ng/ml human EGF, 48 hours at 37° C.
Procedure: A murine haematopoietic cell line is genetically modified so as to express functional human EGF-R. The proliferation of this cell line can therefore be stimulated by EGF.
The test is carried out as follows:
The cells are cultivated in RPMI/1640 medium. The proliferation is stimulated with 20 ng/ml of human EGF (Promega). To investigate the inhibitory activity of the compounds according to the invention these compounds are dissolved in 100% dimethylsulphoxide (DMSO) and added to the cultures in various dilutions, the maximum DMSO concentration being 1%. The cultures are incubated for 48 hours at 37° C.
In order to determine the inhibitory activity of the compounds according to the invention the relative cell number is measured in O.D. units using the Cell Titer 96™ AQueous Non-Radioactive Cell Proliferation Assay (Promega). The relative cell number is calculated as a percentage of the control and the concentration of active substance which inhibits the proliferation of the cells by 50% (IC50) is derived therefrom.

T1 sequence (P00533 25-1210): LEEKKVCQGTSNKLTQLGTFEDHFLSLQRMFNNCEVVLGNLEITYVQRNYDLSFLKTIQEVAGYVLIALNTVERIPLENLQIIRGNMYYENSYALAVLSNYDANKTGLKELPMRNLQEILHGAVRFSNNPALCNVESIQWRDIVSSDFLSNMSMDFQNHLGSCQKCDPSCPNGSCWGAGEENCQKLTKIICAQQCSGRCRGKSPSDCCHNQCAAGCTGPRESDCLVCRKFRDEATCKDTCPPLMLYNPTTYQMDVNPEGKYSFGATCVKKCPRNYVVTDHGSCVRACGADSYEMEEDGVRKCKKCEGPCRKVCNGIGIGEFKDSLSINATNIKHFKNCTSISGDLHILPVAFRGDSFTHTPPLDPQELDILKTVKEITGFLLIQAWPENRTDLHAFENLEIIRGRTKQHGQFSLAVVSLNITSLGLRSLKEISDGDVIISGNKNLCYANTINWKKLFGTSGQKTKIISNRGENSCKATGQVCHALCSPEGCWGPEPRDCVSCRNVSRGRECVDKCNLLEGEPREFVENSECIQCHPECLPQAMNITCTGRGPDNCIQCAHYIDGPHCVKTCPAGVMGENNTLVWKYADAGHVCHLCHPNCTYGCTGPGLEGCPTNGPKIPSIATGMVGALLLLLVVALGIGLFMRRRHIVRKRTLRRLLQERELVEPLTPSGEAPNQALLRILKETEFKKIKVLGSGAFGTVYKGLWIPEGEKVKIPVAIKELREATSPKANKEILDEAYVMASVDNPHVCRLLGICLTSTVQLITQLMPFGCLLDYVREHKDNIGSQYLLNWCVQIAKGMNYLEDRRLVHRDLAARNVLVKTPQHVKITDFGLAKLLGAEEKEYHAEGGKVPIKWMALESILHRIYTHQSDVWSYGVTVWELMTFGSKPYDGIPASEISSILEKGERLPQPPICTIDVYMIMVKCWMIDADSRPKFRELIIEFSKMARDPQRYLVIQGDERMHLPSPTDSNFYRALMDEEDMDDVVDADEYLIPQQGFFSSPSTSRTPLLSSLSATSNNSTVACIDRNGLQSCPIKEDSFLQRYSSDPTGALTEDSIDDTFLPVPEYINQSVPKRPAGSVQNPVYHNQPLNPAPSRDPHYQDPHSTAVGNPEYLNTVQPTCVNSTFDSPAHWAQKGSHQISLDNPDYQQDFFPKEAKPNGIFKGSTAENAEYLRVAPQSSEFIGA

| SMILES | IC50 [nM] |
| --- | --- |
| COc1cc2ncnc(Nc3cccc(Cl)c3F)c2cc1O[C@H]1CC[C@@H](N2CCN(C3CCOCC3)C(=O)C2)CC1 [1(3), cis] | 9.3 |
| COc1cc2ncnc(Nc3cccc(Cl)c3F)c2cc1O[C@H]1CC[C@@H](N2CCN(CC3CC3)C(=O)C2)CC1 [1(1), cis] | 10.1 |
| CCCCN1CCN([C@H]2CC[C@@H](Oc3cc4c(Nc5cccc(Cl)c5F)ncnc4cc3OC)CC2)CC1=O [1(2), cis] | 12.1 |

Compounds with a lower IC50, results first:

| IC50 [nM] | SMILES |
| --- | --- |
| 3.1 | CCCCN1CCN([C@H]2CC[C@H](Oc3cc4c(Nc5cccc(Cl)c5F)ncnc4cc3OC)CC2)CC1=O [1(2), trans] |
| 7.1 | CCN1CCN([C@H]2CC[C@@H](Oc3cc4c(Nc5cccc(Cl)c5F)ncnc4cc3OC)CC2)CC1=O [1, cis] |
| 1.3 | CCN1CCN([C@H]2CC[C@H](Oc3cc4c(Nc5cccc(Cl)c5F)ncnc4cc3OC)CC2)CC1=O [1, trans] |
| 1.6 | COc1cc2ncnc(Nc3cccc(Cl)c3F)c2cc1O[C@H]1CC[C@H](N2CCN(C3CCOCC3)C(=O)C2)CC1 [1(3), trans] |
| 1.7 | COc1cc2ncnc(Nc3cccc(Cl)c3F)c2cc1O[C@H]1CC[C@H](N2CCN(CC3CC3)C(=O)C2)CC1 [1(1), trans] |
